Source: publication PMC11684029, “Discovery of VU6024578/BI02982816: An mGlu1 Positive Allosteric Modulator with Efficacy in Preclinical Antipsychotic and Cognition Models” (Journal of Medicinal Chemistry, 2024)
pEC50: −log10 of the molar value. “Also recorded” adds a separate entry of the source.

How the values were obtained:
[1] = rat IV plasma:brain level (PBL) PK; type: in vivo
[2] = plasma protein binding, equilibrium dialysis; type: in vitro ADME, rat; conditions: fraction unbound
Experimental: The protein binding of each compound was determined in plasma via equilibrium dialysis employing RED Plates (ThermoFisher Scientific, Rochester, NY). Plasma was added to the 96 well plate containing test compound and mixed thoroughly for a final concentration of 5 μM. Subsequently, an aliquot of the plasma-compound mixture was transferred to the cis chamber (red) of the RED plate, with an phosphate buffer (25 mM, pH 7.4) in the trans chamber. The RED plate was sealed and incubated for 4 h at 37 °C with shaking. At completion, aliquots from each chamber were diluted 1:1 with either plasma (cis) or buffer (trans) and transferred to a new 96 well plate, at which time ice-cold acetonitrile containing internal standard (50 ng/mL carbamazepine) (2 volumes) was added to extract the matrices. The plate was centrifuged (3000 rcf, 10 min) and supernatants transferred and diluted 1:1 (supernatant: water) into a new 96 well plate, which was then sealed in preparation for LC/MS/MS analysis. Each compound was assayed in triplicate within the same 96-well plate. Fraction unbound was determined using the following equation [drawing 1]

[3] = tested on: rats; test: rat AHL Cmax versus Ctrough study; type: in vivo
Experimental: Based on these positive behavioral data and the clear PK/PD relationship tied to achieving free brain levels at, or above, the mGlu1 PAM EC50, we next wanted to define the role of Cmax versus Ctrough drug (19d) concentrations in driving the PK/PD relationship. To accomplish this, pretreatment times and doses were calculated based upon previous PK (see Supporting Information Figure S3)[20] data to target free brain concentrations at and below the in vitro EC50 at the time of amphetamine challenge. Rats were pretreated with 3 mg/kg 19d or vehicle after habituation to the locomotor chambers are described in Figure 9A. Rats pretreated with 19d (10–60 mg/kg) or vehicle were administered compound prior to starting the amphetamine-induced hyperlocomotion experiment as depicted in Figure 9B-D. Ambulations were evaluated for 90 min post amphetamine treatment for all dosing groups. Pretreatment of 19d, chamber habituation, amphetamine treatment and ambulation recording times are outlined for each dosing group in Figure 9. Blood and brain samples were obtained at the end of testing (EOT) to determine 19d levels at the end of the study (Table 6).
The terminal free brain concentrations for this dosing group were 40 nM.
Figure 10 Amphetamine-induced hyperlocomotion in rats. A) 1 h pretreatment of 3 mg/kg 19d. B) 5 h pretreatment of 10 mg/kg 19d. C) 28.5 h pretreatment of 60 mg/kg 19d. Total ambulation from 95 to 180 min. *p < 0.05 compared to Vehicle + Amphetamine treated animals. TEXT PRINTED IN THE PICTURE: (A) 19d: Mean % reversal 27.3% * (3 mg/kg 19d + AMP) | (B) 19d: Mean % reversal 25.1% * (10 mg/kg 19d + AMP) | (C) 19d: Mean % reversal 7.3% (60 mg/kg 19d + AMP) DOUBTS OF THE COPYIST ABOUT THIS PICTURE: 19d, panel A, Mean % reversal: small print, 27.3% could be 27.8% / 19d, panel B, Mean % reversal: small print, 25.1% could be 26.1% / 19d, panel C, Mean % reversal: small print, 7.3% could be 7.8%

[4] = tested on: Sprague–Dawley rats; test: spontaneous locomotion; type: in vivo; conditions: rat, doses up to 10 mg/kg p.o.
Experimental: In order to enable our target validation work, we first profiled PAM 19d in a rat locomotor battery to ensure that pharmacodynamic efficacy was not mistaken for gross effects on locomotion.[20] […] PK was performed in parallel to establish a PK/PD relationship.[24]
Adult male Sprague–Dawley rats were administered VU6024578 (1–10 mg/kg p.o.) or vehicle and were tested in the […]. Seventy minutes later the animals were placed into the activity chambers (Med Associates) for 30 min.

[5] = biological target: 5-HT2B (Homo sapiens, UniProt P41595); test: Eurofins radioligand binding panel; parameters: Eurofins; conditions: agonist radioligand
5-HT2B, sequence (P41595 whole entry): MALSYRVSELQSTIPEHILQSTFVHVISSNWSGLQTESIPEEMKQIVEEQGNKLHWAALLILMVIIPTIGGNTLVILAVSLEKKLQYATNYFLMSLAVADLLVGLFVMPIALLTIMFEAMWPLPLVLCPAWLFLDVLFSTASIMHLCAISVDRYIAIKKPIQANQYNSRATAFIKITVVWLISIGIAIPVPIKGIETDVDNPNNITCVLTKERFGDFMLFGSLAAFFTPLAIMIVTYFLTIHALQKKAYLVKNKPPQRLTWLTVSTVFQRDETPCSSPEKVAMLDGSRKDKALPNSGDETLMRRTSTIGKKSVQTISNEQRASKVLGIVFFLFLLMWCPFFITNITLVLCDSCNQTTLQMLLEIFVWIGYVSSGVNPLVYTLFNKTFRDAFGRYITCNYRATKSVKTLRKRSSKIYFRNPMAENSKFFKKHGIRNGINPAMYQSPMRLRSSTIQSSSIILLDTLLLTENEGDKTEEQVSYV
Source text: Table S1. Eurofins Lead Profiling Screen Data
This is a radioligand binding panel of 80 targets including GPCRs, ion channels, transporters and nuclear hormones. Biochemical assay results are presented as the percent inhibition of specific […]
Results showing an inhibition or stimulation higher than 50% are considered to represent significant effect and are highlighted

[6] = biological target: T1, human mGlu1 (Homo sapiens, UniProt Q13255); test: mGlu1 calcium mobilization (triple-add) PAM assay; type: cell-based
T1 construct: expressed in transfected cells; pcDNA5/TO)
T1 sequence (Q13255 19-1194): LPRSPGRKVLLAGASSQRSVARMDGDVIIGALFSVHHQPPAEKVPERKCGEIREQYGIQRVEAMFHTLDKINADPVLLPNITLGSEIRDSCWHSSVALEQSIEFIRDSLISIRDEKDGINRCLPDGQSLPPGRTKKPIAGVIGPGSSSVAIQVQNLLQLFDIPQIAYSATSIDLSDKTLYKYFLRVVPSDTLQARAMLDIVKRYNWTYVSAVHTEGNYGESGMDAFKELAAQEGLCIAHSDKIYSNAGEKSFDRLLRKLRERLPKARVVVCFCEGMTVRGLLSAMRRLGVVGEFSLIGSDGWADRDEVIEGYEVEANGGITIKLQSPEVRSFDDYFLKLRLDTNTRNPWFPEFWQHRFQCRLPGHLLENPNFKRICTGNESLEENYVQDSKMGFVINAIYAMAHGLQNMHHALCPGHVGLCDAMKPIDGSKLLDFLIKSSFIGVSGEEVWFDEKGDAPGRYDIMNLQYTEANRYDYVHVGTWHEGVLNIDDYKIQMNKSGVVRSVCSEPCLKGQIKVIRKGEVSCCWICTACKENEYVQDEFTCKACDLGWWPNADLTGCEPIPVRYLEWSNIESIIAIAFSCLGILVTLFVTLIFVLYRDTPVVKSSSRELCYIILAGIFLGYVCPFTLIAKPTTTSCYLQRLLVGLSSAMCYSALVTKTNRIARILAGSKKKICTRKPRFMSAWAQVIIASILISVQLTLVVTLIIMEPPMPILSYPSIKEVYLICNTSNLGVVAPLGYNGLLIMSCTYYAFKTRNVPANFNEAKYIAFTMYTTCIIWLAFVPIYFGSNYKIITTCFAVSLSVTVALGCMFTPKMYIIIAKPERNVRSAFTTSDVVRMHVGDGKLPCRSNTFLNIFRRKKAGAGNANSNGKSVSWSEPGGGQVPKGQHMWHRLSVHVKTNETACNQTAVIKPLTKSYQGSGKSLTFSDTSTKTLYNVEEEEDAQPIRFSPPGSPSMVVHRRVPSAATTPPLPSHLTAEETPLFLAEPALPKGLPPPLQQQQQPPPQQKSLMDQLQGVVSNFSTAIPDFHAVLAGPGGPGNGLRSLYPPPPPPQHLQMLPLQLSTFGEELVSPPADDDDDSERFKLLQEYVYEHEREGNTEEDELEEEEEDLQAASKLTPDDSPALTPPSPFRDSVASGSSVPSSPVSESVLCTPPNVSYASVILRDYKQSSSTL
Experimental: Tetracycline-inducible human mGlu1 WT-T-REx-293 cells (Wu et al, Science 2014) were cultured at 37 °C in Dulbecco’s Modified Eagle Medium (DMEM) growth medium containing 10% Tet-tested FBS, 2 mM L-glutamine, 20 mM HEPES, 0.1 mM nonessential amino acids, 1 mM sodium pyruvate, antibiotic/antimycotic, 100 μg/mL hygromycin and 5 μg/mL blasticidin in the presence of 5% CO2. […] The mutant stable cell lines were generated in the same manner as the WT as previously described and cultured in the growth medium described above.
To determine the potency of mGlu1 PAMs in calcium assays, Ca flux was measured as previously described in ACS Chem. Bio. 2014, 9, 2334–2346. Briefly, the day before the assay, human mGlu1 WT-T-REx-293 cells were plated in black-walled, clear-bottomed, poly-D-lysine coated 96-well plates at 80,000 cells/100 μL assay medium (DMEM supplemented with 10% dialyzed FBS, 20 mM HEPES, and 1 mM sodium pyruvate) containing 50 ng/mL of tetracycline to induce mGlu1 expression. The next day, media was removed and the cells were incubated with 50 μL of 1.15 μM Fluo-4 AM dye solution prepared in assay buffer (buffer (Hank’s balanced salt solution, 20 mM HEPES, and 2.5 mM probenecid) for 45 min at 37 °C, the dye was removed and replaced with 45 μL of assay buffer. Then, calcium flux was measured using Flexstation II (Molecular Devices, Sunnyvale, CA). Compounds serially diluted at half log concentrations in DMSO were further diluted in assay buffer. The compounds or DMSO vehicle were added to cells and incubated for 2.5 min and an EC20 concentration of glutamate was added and incubated for 1 min. An ECmax concentration of glutamate was also added to cells that were incubated with DMSO vehicle to accurately calculate the EC20 calcium response. Data were normalized by subtracting the basal florescent peak before EC20 agonist addition from the maximal peak elicited by EC20 agonist and PAMs. Using GraphPad Prism 5.0, the concentration response curves were generated and the potencies of the mGlu1 PAMs were determined.

[7] = PAM, calcium flux, EC20 glutamate

Cn1nc(-c2ccnn2C)cc1CNC(=O)c1cc(-c2ccco2)ccc1Cl [Compound 19d, 2-Chloro-N-((1,2′-dimethyl-1H,2’H-[3,3′-bipyrazol]-5-yl)methyl)-5-(furan-2-yl)benzamide]
Kp at 15 min ([1]; Sprague-Dawley, 0.25 mg/kg/compound, rat IV PBL, brain:plasma): 0.99 | Kp uu at 15 min ([1]; Sprague-Dawley, brain, 0.25 mg/kg/compound, rat IV PBL): 0.82 | half-life ([1]; plasma, iv, 1 mg/kg, rat PK PBL experiment): 3.6 h | clearance ([1]; plasma, iv, 1 mg/kg, rat PK PBL experiment, read-out: CLp): 8.3 mL/min/kg | MRT ([1]; plasma, iv, 1 mg/kg, rat PK PBL experiment, read-out: MRT): 3.5 h | Vd ([1]; plasma, iv, 1 mg/kg, rat PK PBL experiment, read-out: Vss): 1.78 L/kg | rat fuplasma [2]: 0.041 | effect on AHL, in words ([3]; 3 mg/kg, 1 h prior to amphetamine): significantly reduced | effect on AHL, in words ([3]; 10 mg/kg, 5 h before amphetamine): significantly reduced | reduction of locomotor activity after amphetamine, in words ([3]; 60 mg/kg, 28.5 h before amphetamine): not demonstrated | spontaneous locomotion [4]: lack of effect | inhibition at 10 µM [5]: 67% | pEC50 [6, 7]: 7.27 | human mGlu1 Glumax [6, 7]: 83% | human mGlu1 pEC50 ([6]; n = 77): 7.31 ± 0.02 | receptor desensitization (antagonist/EC80 window) ([6]; triple-add protocol): only slight mGlu1 desensitization; also recorded: little receptor desensitization | intrinsic agonist activity (compound alone window) ([6]; triple-add protocol, up to 30 μM): no agonism; also recorded: no intrinsic agonist activity
